The values that follow come from article PMC3270411 (Chemistry & biology, 2012).

Where two headings read alike, the source gives them in different places.

As usually defined, the inhibition is the drop in the measured response relative to a control, in per cent. As a reminder, the EC50 is the concentration at which the effect is half-maximal.

What all share (assay type): cell-based
In assay [1] the target is T1, ITPK1 (Homo sapiens, UniProt Q13572).
T1 sequence (Q13572 1-414): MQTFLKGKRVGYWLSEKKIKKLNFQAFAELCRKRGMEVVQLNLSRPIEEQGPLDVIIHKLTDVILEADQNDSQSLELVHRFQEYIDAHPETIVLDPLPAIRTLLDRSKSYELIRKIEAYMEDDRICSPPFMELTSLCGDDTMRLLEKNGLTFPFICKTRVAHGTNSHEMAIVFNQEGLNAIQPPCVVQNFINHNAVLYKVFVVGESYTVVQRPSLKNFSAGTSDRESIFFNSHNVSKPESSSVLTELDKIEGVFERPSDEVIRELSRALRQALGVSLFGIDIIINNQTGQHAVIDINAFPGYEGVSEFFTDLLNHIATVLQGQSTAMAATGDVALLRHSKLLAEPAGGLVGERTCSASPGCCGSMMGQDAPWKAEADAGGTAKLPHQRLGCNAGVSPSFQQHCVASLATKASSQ
Description: KiNativ cellular kinase profiling. The settings on record: for inhibition at 1 µM: A-375, read-out: Percent inhibition of kinase labeling by ATP-biotin; for Percent inhibition of kinase labeling by ATP-biotin: A375 cells, 1 μM, 3 hours, ITPK1, labeling site ATP.

Assay [2] deals with CK1a (Homo sapiens, UniProt P48729). Description: KiNativ cellular kinase profiling. The settings on record: for inhibition at 1 µM: A-375, read-out: Percent inhibition of kinase labeling by ATP-biotin; for Percent inhibition of kinase labeling by ATP-biotin: A375 cells, 1 μM, 3 hours, CK1a, labeling site Lys2.
Chain of CK1a (P48729 whole entry): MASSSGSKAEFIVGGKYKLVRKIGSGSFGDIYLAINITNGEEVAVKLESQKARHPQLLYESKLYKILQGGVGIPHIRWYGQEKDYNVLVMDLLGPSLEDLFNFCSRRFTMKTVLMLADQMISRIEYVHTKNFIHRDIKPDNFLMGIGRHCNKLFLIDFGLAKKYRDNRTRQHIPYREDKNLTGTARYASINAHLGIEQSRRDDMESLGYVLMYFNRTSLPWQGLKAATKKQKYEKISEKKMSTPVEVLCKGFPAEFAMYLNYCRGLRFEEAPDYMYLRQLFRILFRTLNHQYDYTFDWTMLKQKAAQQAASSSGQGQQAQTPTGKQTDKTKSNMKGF
For assay [3], the target named is T2, IKKa (Homo sapiens, UniProt O15111).
T2 sequence (O15111 1-745): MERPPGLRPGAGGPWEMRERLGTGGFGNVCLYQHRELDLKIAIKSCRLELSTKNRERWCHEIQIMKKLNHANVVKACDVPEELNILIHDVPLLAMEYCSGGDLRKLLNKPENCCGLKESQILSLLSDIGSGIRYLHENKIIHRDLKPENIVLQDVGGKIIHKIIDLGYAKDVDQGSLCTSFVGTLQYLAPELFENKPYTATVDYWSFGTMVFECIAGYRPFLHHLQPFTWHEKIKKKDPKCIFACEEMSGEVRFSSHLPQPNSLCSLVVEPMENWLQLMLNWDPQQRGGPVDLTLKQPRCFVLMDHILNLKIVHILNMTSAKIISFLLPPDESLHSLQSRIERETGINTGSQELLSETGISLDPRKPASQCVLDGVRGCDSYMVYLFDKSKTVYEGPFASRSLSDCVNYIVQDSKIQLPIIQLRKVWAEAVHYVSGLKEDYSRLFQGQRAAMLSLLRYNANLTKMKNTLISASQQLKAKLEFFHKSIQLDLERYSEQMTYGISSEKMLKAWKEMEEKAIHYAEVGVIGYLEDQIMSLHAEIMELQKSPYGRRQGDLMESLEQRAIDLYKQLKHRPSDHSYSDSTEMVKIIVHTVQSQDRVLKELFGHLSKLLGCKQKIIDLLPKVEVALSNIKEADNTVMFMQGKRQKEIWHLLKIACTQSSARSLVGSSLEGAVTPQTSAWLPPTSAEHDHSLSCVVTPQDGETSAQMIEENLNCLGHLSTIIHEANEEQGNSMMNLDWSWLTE
Nature of the assay: KiNativ cellular kinase profiling. To be noted: for inhibition at 1 µM: A-375, read-out: Percent inhibition of kinase labeling by ATP-biotin; for Percent inhibition of kinase labeling by ATP-biotin: A375 cells, 1 μM, 3 hours, IKKa, labeling site Lys2.

In assay [4] the target is GSK3B (Homo sapiens, UniProt P49841). Description: KiNativ cellular kinase profiling. The settings on record: for inhibition at 1 µM: A-375, read-out: Percent inhibition of kinase labeling by ATP-biotin; for Percent inhibition of kinase labeling by ATP-biotin: A375 cells, 1 μM, 3 hours, GSK3B, labeling site Lys2.
Chain of GSK3B (P49841 whole entry): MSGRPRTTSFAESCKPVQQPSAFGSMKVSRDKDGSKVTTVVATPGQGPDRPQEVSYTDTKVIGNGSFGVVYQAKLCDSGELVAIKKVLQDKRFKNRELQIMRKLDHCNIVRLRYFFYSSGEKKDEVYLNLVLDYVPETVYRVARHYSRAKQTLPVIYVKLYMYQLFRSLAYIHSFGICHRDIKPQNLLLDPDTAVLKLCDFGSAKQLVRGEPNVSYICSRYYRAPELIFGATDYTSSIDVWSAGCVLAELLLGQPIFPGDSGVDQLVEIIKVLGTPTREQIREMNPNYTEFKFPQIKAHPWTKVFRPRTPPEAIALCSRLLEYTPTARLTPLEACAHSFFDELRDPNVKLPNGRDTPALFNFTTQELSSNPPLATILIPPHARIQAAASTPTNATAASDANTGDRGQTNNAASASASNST
The subject of assay [5] is MARK2,MARK3. Nature of the assay: KiNativ cellular kinase profiling. To be noted: A375 cells, 1 μM, 3 hours; MARK2,MARK3, labeling site Lys2.
The target in assay [6] is T3, TAO2 (Homo sapiens, UniProt Q9UL54).
T3 sequence (Q9UL54 1-1235): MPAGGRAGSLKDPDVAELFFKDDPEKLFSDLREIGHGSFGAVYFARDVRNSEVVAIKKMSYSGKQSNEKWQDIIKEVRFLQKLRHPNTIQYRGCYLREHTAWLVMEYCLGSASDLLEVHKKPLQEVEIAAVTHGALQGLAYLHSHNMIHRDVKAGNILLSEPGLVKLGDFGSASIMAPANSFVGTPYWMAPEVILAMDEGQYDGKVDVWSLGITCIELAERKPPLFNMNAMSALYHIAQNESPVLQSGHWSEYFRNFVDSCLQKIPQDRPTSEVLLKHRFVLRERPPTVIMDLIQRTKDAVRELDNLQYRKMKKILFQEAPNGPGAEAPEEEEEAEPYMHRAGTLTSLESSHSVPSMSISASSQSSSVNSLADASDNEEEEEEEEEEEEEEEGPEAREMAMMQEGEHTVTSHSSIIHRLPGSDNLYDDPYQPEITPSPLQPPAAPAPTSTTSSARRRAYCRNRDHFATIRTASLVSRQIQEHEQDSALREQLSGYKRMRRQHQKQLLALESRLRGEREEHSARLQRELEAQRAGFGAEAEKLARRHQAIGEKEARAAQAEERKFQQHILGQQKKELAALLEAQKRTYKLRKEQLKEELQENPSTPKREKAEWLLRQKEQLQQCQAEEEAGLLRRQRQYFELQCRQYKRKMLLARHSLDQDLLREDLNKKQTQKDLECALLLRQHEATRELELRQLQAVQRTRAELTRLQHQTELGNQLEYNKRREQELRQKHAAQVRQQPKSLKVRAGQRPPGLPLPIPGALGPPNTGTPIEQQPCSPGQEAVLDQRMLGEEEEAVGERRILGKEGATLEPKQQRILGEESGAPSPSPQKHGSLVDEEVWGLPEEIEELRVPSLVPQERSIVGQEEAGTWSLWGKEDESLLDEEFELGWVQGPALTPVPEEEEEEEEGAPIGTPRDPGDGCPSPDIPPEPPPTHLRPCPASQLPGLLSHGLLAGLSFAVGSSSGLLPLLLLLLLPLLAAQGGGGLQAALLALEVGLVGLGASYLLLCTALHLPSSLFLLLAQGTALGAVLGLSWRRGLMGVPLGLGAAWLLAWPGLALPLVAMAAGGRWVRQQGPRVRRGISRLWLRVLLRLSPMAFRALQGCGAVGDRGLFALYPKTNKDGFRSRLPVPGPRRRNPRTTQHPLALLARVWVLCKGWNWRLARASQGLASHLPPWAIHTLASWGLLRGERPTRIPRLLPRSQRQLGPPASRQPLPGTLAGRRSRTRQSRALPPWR
Description: KiNativ cellular kinase profiling. To be noted: for inhibition at 1 µM: A-375, read-out: Percent inhibition of kinase labeling by ATP-biotin; for Percent inhibition of kinase labeling by ATP-biotin: A375 cells, 1 μM, 3 hours, TAO2, labeling site Lys2.

The target in assay [7] is PIP5K3 (Homo sapiens, UniProt Q9Y2I7). Description: KiNativ cellular kinase profiling. The settings on record: for inhibition at 1 µM: A-375, read-out: Percent inhibition of kinase labeling by ATP-biotin; for Percent inhibition of kinase labeling by ATP-biotin: A375 cells, 1 μM, 3 hours, PIP5K3, labeling site ATP.
Chain of PIP5K3 (Q9Y2I7 whole entry): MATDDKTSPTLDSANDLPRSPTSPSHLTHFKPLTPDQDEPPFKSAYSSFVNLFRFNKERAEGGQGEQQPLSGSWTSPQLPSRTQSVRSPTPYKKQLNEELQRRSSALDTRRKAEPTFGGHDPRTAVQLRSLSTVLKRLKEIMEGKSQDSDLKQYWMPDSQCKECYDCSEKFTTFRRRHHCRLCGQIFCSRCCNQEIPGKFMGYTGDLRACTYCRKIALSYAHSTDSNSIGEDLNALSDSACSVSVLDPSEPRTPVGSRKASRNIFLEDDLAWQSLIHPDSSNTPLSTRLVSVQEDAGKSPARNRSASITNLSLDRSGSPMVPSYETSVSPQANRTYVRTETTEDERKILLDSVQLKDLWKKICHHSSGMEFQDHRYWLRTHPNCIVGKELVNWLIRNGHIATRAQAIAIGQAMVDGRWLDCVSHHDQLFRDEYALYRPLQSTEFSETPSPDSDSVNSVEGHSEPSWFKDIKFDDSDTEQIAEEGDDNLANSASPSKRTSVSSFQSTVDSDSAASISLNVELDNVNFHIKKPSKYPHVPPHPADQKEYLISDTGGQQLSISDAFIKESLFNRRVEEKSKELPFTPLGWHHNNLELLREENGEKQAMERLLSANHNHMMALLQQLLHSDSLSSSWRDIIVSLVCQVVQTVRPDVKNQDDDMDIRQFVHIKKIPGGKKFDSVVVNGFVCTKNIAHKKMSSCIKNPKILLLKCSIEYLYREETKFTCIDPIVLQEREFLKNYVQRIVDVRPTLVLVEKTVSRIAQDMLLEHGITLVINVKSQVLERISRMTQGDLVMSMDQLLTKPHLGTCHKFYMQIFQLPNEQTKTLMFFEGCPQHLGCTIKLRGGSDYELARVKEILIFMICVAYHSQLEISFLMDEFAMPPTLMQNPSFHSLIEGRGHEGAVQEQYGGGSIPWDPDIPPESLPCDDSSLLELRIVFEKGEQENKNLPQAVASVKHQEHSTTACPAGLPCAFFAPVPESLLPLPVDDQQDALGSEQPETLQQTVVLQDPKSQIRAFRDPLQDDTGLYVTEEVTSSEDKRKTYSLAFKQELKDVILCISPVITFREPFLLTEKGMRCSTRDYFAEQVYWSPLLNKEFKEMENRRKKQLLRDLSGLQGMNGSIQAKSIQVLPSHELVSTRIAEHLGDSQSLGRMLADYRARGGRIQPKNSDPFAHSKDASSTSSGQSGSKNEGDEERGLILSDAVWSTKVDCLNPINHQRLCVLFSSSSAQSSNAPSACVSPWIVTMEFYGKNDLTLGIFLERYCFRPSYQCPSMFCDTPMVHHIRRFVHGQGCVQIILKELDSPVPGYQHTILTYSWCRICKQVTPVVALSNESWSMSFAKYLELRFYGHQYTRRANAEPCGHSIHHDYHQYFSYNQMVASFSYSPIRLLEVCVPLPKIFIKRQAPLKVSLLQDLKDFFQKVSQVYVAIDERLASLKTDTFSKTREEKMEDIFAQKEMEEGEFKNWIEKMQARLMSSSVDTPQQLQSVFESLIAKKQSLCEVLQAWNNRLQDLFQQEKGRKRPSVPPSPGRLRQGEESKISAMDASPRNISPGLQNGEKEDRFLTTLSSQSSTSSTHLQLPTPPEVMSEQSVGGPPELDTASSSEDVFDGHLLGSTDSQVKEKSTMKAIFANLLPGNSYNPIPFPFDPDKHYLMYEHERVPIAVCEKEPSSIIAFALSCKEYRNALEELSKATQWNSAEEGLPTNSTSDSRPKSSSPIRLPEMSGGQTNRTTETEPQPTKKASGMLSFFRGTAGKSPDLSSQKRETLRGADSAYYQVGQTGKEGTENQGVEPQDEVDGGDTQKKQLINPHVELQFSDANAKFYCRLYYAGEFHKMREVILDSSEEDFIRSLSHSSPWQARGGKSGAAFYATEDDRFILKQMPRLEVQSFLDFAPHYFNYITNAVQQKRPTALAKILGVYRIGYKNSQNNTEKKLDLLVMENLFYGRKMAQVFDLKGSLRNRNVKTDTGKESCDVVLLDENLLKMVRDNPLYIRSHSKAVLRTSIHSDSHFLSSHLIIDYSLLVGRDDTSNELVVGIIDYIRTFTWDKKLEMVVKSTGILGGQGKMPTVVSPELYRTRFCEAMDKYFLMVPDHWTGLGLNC
Assay [8] deals with PKD1,PKD2. Nature of the assay: KiNativ cellular kinase profiling. To be noted: A375 cells, 1 μM, 3 hours; PKD1,PKD2, labeling site Lys2.
In assay [9] the test system is c-Jun phosphorylation (phospho Ser73) in A375 cells.
Setting [10] is: read-out: p-c-Jun EC50 (nM) A375, A375 cells, anisomycin stimulation, microscopy.

Regarding `CN(C)C/C=C/C(=O)Nc1cccc(C(=O)Nc2ccc(Nc3nccc(-c4c(-c5ccccc5)nn5ccccc45)n3)cc2)c1` [JNK-IN-11], the inhibition at 1 µM in assay [1] is -0.7%; in assay [2], 61.1%; in assay [3] it was -7.3%; in assay [4], 67.1%; in assay [6] it was 42.6%; in assay [7], 99.3%. The “Percent inhibition of kinase labeling by ATP-biotin” value (“Percent inhibition” below) in assay [5] was determined as 0.4%; in assay [8], 10.4%.
`CN(C)C/C=C/C(=O)Nc1cccc(C(=O)Nc2ccc(Nc3nccc(-c4cccnc4)n3)cc2)c1` [JNK-IN-7]: the inhibition at 1 µM was -0.2% in assay [1]; -20.2% in assay [2]; -9.2% in assay [3]; 12.3% in assay [4]; -3.7% in [6]; 91.8% in assay [7]. Also, the “Percent inhibition” value in assay [5] turned out to be 26.5%; in assay [8], 18.2%.
In the case of `Cc1cc(NC(=O)c2cccc(NC(=O)/C=C/CN(C)C)c2)ccc1Nc1nccc(-c2cccnc2)n1` [JNK-IN-8], in assay [9] (Homo sapiens, A-375, read-out: p-c-Jun EC50 (nM) A375), the half-maximal effective concentration (EC50) was determined as 338 nM. The inhibition at 1 µM is 24.6% in assay [1]; -13.6% in [2]; 4.9% in assay [3]; -8.5% in [4]; -21.6% in assay [6]; 18.7% in assay [7]. Also, the “Percent inhibition” value in assay [5] is 13.9%; in assay [8] it was −3%.
Turning to `CN(C)C/C=C/C(=O)Nc1cccc(C(=O)Nc2ccc(Nc3nccc(/C(C#N)=C4\Nc5ccccc5S4)n3)cc2)c1` [JNK-IN-12], the 50% effective concentration (EC50) in assay [9] (setting [10]) turned out to be 134 nM. The “Percent inhibition” value is given as 8.6% in assay [1]; −96% in assay [2]; −79.2% in assay [3]; −29.6% in [4]; −38.7% in [5]; −13% in assay [6]. Besides, the “Percent inhibition” value in [7] was −11.4%; in assay [8] it was −39.3%.
As to `CCC(=O)Nc1cccc(C(=O)Nc2ccc(Nc3nccc(-c4cccnc4)n3)cc2)c1` [JNK-IN-6], the EC50 in assay [9] (setting [10]) came to 1900 nM. Besides, the “Percent inhibition” value in assay [1] amounted to 27%; in assay [2], 19.5%; in assay [3], 27.3%; in assay [4], 23.6%; in assay [5], 22.9%; in assay [6] it was 22.5%. For the same compound, the “Percent inhibition” value in [7] is 16.8%; in [8] it was 15.9%.
